Measurements as given in patent publication US20220110902A1, “Methods of treating amyloid-beta peptide diseases” (Ecole Polytechnique Federale de Lausanne, priority 2016, published 2022).

Legend:
old mice = experiment: Myriocin treatment of aged mice: muscle function and amyloid deposits; assay type: in vivo, mouse; conditions: 0.4 mg/kg intra peritoneal injection for 8 weeks
Excerpt: FIG. 14A is a graph showing that inhibition of ceramide synthesis resolves Aβ proteotoxic stress in human cells. […] (FIG. 14C) Myriocin, administered as described in FIG. 14B, improves grip strength, exercise capacity (distance run), balance (latency square in beamwalk), and movement coordination (rotarod latency) in old mice. (FIG. 14D) Myriocin treatment reduces amyloid deposits, as shown by immunodetection with Thioflavin S (ThS), in the muscle tissues of old mice.

SH-SY5Y(APPSwe) cells = experiment: Western-blot and transcript analysis in SH-SY5Y(APPSwe) cells; assay type: cell-based, human; conditions: NR 1 mM
Method: Human: Total RNA was extracted using guanidine-isothiocyanate lysis (PureLink, Ambion, Waltham, Mass.) from cortex samples, and RNA integrity and concentration was verified using Bioanalysis (Agilent, Santa Clara, Calif.). Samples were randomized based on diagnostic group and assayed in triplicate on a real-time PCR cycler (ABI 7500, Applied Biosystems, Foster City) in 96-well optical plates. qPCR was performed using Taqman hydrolysis probe primer sets (Applied Biosystems) specific for the following human transcripts: HSPA9, HSPD1, YMEIL1, DNM1L, BECN1, SQSTM1, PARK2, COX5A, CYC1. A primer set specific for human GAPDH was used as a control housekeeping transcript. For the APPSwe-expressing SH-SY5Y cell line, total RNA was extracted […] using TriPure RNA isolation reagent, and expression of selected transcripts was analyzed using the LightCycler480 system (Roche) and LightCycler® 480 SYBR Green I Master reagent (Roche). The GAPDH gene was used as housekeeping reference. The ddCT method was employed to determine relative levels of each amplicon. […] The SH-SY5Y neuroblastoma cell line expressing the APP Swedish K670N/M671L double mutation (APPSwe) was a kind gift of Prof. Cedazo-Minguez (Karolinska Institute, Sweden). Cells were grown in DMEM/F-12, supplemented with 10% fetal bovine serum (FBS, Gibco), GlutaMAX (100×, Gibco) and penicillin/streptomycin (1×, Gibco). Cells were selected in 4 μg/mL Geneticin® Selective Antibiotic (G418 Sulfate, Sigma) and grown for three generations before experiments with cells plated and passaged at 4×10^3 cells/ml and 60% confluence, respectively. Cells were cultured at 37° C. under a 5% CO2 atmosphere and tested for mycoplasma using Mycoprobe (#CUL001B, R&D systems) following the manufacturer's instructions. Cells were treated with 10 μg/mL dox, NR 1 or 3 mM, ISRIB 0.5 μM (Sigma), as indicated for 24 hours before cell harvesting or fixation. For the immunostaining, cells were fixed with 1× Formal-Fixx (Thermo Scientific) for 15 min. […]

APP/PSEN1 AD mice = experiment: NR treatment of APP/PSEN1 AD mice: cortex plaques, MSR, Oxphos proteins; assay type: in vivo, mouse; conditions: NR 400 mg/kg/day for 10 weeks
Method: Young (1 month old) and aged (20-24 months old) C57BL/6JRj mice were purchased from Janvier Labs. APP/PSEN1 mice (Tg(APPswe,PSEN1dE9)85Dbo/Mmjax) were purchased from JAX. C57BL/6JR mice were fed with pellets containing vehicle or NR (400 mg/kg/day) for 6-8 weeks, while APP/PSEN1 mice were fed NR pellets for 10 weeks, starting at the age of 4 months. The pellets were prepared by mixing powdered chow diet (20165, Harlan Laboratories) with water or with NR dissolved in water. Pellets were dried under a laminar flow hood for 48 hours. Mice were housed by groups of 2 to 5 animals per cage and randomized to 7-8 animals per experimental group according to their body weight. No blinding was used during the experiment procedures. Mouse: Total RNA was extracted from tissues using TriPure RNA isolation reagent (Roche) according to the product manual. Expression of selected genes was analyzed using the LightCycler480 system (Roche) and LightCycler® 480 SYBR Green I Master reagent (Roche). The beta-2-Microglobulin B2m gene was used as housekeeping reference. Mouse: Frozen cortex tissue samples were lysed by mechanical homogenization with RIPA buffer containing protease and phosphatase inhibitors, and analyzed by SDS-PAGE and western blot. Subsequently, the concentration of extracted protein was determined by using the Bio-Rad Protein Assay. Proteins were detected using the following antibodies: HSP60 (Enzo Life Science), CLPP (Sigma), anti-GAPDH (14C10) (Cell Signaling), LONP1 (Sigma), PINK1 (Novus Biologicals), LC3 A/B (Cell Signaling), SDHB (Oxphos cocktail, Abcam), MTCO1 (Abcam), Ubiquitin (Enzo), P62 (BD Transduction Laboratories), Phopsho P62 (Cell Signaling), VDAC (Abcam), β-Amyloid, 17-24 (4G8) (BioLegend). In addition to the housekeeping proteins, loading was monitored by Ponceau Red to ensure a homogeneous loading. […] Pixel intensity was quantified by using ImageJ software. […] Quantitative analysis of the immunofluorescence data was carried out by histogram analysis of the fluorescence intensity at each pixel across the images using Image J (Fiji; National Institutes of Health). […]

Compound | balance (latency square in beamwalk) (old mice; mice 18 months or older) | exercise capacity (distance run) (old mice; mice 18 months or older) | grip strength (old mice; mice 18 months or older) | movement coordination (rotarod latency) (old mice; mice 18 months or older) | amyloid deposits in muscle tissues, Thioflavin S (ThS) (old mice; old mice) | MSR transcript levels (SH-SY5Y(APPSwe) cells; 24 h, dox 10 μg/mL) | oxidative phosphorylation (OXPHOS) protein levels (SH-SY5Y(APPSwe) cells; Western-blot) | MSR signature in cortex (APP/PSEN1 AD mice) | Oxphos protein levels in cortex (APP/PSEN1 AD mice) | Aβ deposits (plaques) in cortex, Thioflavin S (APP/PSEN1 AD mice; starting at 4 months of age)
CCCCCCC(=O)CCCCCC/C=C/C[C@@H](O)[C@H](O)[C@@](N)(CO)C(=O)O [Myriocin, (E,2S,3R,4R)-2-amino-3,4-dihydroxy-2-(hydroxymethyl)-14-oxoicos-6-enoic acid] | improves | improves | improves | improves | reduces |  |  |  |  | 
NC(=O)c1ccc[n+]([C@@H]2O[C@H](CO)[C@@H](O)[C@H]2O)c1 [NR, Nicotinamide Riboside triflate] |  |  |  |  |  | increased | increases | induced | induced | robustly reduced
